Patent US20250205258A1 (priority 2022, published 2025)

Experiments:
[1] = test system: HCT116 colorectal cancer cells xenografts; assay: In vivo antitumor activity, HCT116 xenografts (Efficacy Example 2); set-up: species or system BALB/C nude mice; settings: 1a 10 mg/kg ip × 7, qod, 5-Fluorouracil 15 mg/kg ip × 7
Excerpt: (§1) Experimental Method: The test animals were male SPF-grade BALB/C nude mice weighing 18 to 20 grams.
(§2) Experimental Procedure: Well-grown HCT116 colorectal cancer tumor masses were cut into uniform small pieces of approximately 3 mm in size under aseptic conditions. A cannula needle was used to inoculate one piece subcutaneously into the right axilla of each test mouse. Nine days after inoculation, the average tumor volume was approximately 113 to 119 mm^3. The animals were then regrouped based on tumor size, eliminating those with excessively large or small tumors, to ensure that the average tumor volume was consistent among the experimental groups. Administration by intraperitoneal injection was then initiated according to the following protocol, with a dosing volume of 0.2 mL per 20 grams of body weight:
(§3) From the 9th day of inoculation, the maximum tumor length (a, in mm) and the perpendicular maximum tumor width (b, in mm) were measured twice a week using a digital electronic caliper.
(§4) The tumor volume (TV) was calculated using the formula: TV=ab^2/2.
(§5) The relative tumor volume (RTV) was calculated using the formula: RTV=Vt/Vo, where Vo is the tumor volume measured at the time of cage distribution (i.e., day 1) and Vt is the tumor volume at each subsequent measurement.
(§6) On the 27th day after inoculation (day 19), the animals were euthanized, weighed, dissected to remove the tumor masses, and the tumor weights were measured.

[2] = test system: HCT116 colorectal cancer cells xenografts; assay: In vivo antitumor activity, HCT116 xenografts (Efficacy Example 3); set-up: species or system BALB/C nude mice; settings: 1c 1 mg/kg iv × 7, qod, 5-Fluorouracil 15 mg/kg ip × 7; for Animal weight (After tumor removal): nude mice, HCT116 xenograft; for RTV (d18): relative tumor volume; for TGI (%): tumor volume inhibition
Excerpt: as §1, §2, §3, §4, §5, §6
This efficacy example employs the same test animals and experimental methods as Efficacy Example 2, with the only difference being that the average tumor volume was approximately 130 to 140 mm^3 on the 13th day after inoculation of HCT116 colorectal cancer tumor masses into the test mice. Subsequently, the animals were regrouped based on tumor size and administered the drug according to the same protocol as in Efficacy Example 2. The animals were euthanized on the 30th day after inoculation (i.e., day 18), and their body weights and tumor weights were measured after dissection.

[3] = test system: human colorectal cancer cell line HCT116; assay: CCK-8 in vitro antitumor activity (Effect Example 1); assay type: cell-based; settings: HCT-116, HCT116, CCK-8, 72 hours
Protocol: (§7) The CCK-8 method described in “Methods for New Drug Pharmacological Research” (edited by Lv Qiujun, 2007: 242-243) was adopted.
(§8) The cell lines used were human lung adenocarcinoma cell line A549 and human colorectal cancer cell line HCT116, which were cryopreserved and passaged in the pharmacological laboratory of the Shanghai Institute of Pharmaceutical Industry. The culture medium was DMEM supplemented with 10% FBS and antibiotics.
(§9) Cells in logarithmic growth phase were seeded into 96-well plates at a density of 7×10^3 cells per well and incubated at 37° C. in a 5% CO2 environment for 24 hours to maintain a normal physiological pH.
(§10) After cell attachment, different concentrations of the test compounds, namely the bufalin derivatives 1a to 1l prepared in Example 1, as well as the compound doxorubicin, were added to triplicate wells, with 0.1% DMSO added as a control.
(§11) After 72 hours, 10 μL of CCK-8 cell counting kit was added to each well, and the plates were incubated again at 37° C. for 0.5 to 1 hour. The absorbance (OD) was read at 450 nm on a full-featured microplate reader (Biotek Synergy H2), and the concentration causing 50% cell growth inhibition (IC50) was calculated by simulation using GraphPad Prism software.

[4] = test system: human lung adenocarcinoma cell line A549; assay: as above; assay type: cell-based; settings: A549, CCK-8, 72 hours
Protocol: as §7, §8, §9, §10, §11

95D cells = assay: Cell scratch test, migration of 95D cells; assay type: cell-based, human; settings: different concentrations, FIG. 1 and FIG. 2
Protocol: Test Method: Draw three parallel lines with a spacing of approximately 0.5 cm on the outer bottom surface of a 6-well plate. After evenly seeding the tumor cells 95D onto the plate (5×10^5 cells/well), create a cell scratch using a pipette. Wash the cells three times with phosphate-buffered saline (PBS) to remove the scratched-off cells. Then, add medium that has been pre-mixed with different concentrations of compound 1a or 1b.
Place the plate in a 37° C., 5% CO2 incubator for culturing. Sample the cells at 0, 12, 24, 36, and 48 hours, and take photographs under a microscope.
Using ImageJ software, measure the area and height of the scratch site. The average scratch width can be obtained by dividing the area by the height. Subtract the scratch width at the end of the experiment from the scratch width at the 0-hour point to obtain the distance of cell migration. Then, use this distance value to calculate the cell migration index (MI) according to the following formula:
Cell Migration Index(MI)=(Initial Blank Width−Blank Width at a Specific Time Point)/Initial Blank Width.

hERG potassium channel = hERG potassium channel (Homo sapiens, UniProt Q12809); settings: test concentration 30 μM
hERG potassium channel, sequence (Q12809 whole entry): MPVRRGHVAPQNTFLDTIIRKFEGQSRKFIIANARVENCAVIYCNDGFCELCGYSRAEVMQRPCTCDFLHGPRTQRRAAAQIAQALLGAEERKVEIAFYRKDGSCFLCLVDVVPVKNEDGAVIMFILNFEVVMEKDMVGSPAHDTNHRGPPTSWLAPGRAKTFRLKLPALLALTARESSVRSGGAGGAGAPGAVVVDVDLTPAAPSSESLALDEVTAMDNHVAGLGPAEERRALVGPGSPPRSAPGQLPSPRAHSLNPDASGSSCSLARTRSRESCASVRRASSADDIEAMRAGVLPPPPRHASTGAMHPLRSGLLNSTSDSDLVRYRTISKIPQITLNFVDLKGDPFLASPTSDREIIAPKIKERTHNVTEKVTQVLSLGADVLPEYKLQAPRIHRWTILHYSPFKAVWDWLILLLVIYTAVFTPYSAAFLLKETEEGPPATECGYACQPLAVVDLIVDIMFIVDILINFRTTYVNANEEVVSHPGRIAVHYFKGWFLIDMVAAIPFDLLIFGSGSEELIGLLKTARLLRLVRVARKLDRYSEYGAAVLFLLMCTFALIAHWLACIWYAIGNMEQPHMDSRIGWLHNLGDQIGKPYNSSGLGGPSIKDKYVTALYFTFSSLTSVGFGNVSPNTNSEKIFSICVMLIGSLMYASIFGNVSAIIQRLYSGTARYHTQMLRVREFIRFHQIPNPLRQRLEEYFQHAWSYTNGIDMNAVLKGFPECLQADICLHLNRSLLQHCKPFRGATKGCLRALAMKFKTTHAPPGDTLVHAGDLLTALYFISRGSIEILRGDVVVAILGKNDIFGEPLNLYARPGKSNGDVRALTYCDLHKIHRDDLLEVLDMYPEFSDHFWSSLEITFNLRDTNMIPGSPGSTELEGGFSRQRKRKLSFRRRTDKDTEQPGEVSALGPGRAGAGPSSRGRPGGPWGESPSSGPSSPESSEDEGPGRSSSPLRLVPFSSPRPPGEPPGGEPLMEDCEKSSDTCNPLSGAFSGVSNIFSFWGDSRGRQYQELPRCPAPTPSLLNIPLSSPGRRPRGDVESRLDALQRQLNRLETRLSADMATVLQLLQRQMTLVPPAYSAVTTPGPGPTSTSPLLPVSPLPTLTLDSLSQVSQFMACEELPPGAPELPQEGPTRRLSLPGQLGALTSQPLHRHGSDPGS
Protocol: Experimental Method: CHO-hERG cells were cultured in a 175 cm^2 flask until the cell density reached 60 to 80%. The culture medium was then removed, and the cells were washed once with 7 mL of Phosphate Buffered Saline (PBS). Subsequently, 3 mL of gentle cell detachment solution (Detachin) was added for digestion. Once the digestion was complete, 7 mL of culture medium was added to neutralize the solution. The cells were then centrifuged, and the supernatant was aspirated. To ensure a cell density of 2 to 5×10^6/mL, 5 mL of culture medium was added to resuspend the cells.
The entire process of forming single-cell high-impedance seals and whole-cell recording mode was automatically completed by the high-throughput, fully automated patch clamp system, namely the Qpatch instrument. After obtaining the whole-cell recording mode, the cells were clamped at −80 mV. Prior to applying a 5-second+40 mV depolarization stimulus, a 50-millisecond −50 mV prepulse was given, followed by a repolarization to −50 mV for 5 seconds, and then returning to −80 mV This voltage stimulus was applied every 15 seconds. After recording for 2 minutes, the extracellular solution was recorded for 5 minutes, and then the drug administration process began.
These stock solutions were then diluted 500-fold with extracellular solution to obtain the final concentrations required for testing.

[5] = test system: Human lung adenocarcinoma cells A549; assay: CCK-8 in vitro antitumor activity (Table 5); assay type: cell-based; settings: A549, CCK-8, 72 hours
Excerpt: (§12) Test Method: The CCK-8 method from “Methods for New Drug Pharmacological Research” edited by Lv Qiujun (2007: 242-243) was adopted.
(§13) Cell lines used: Human lung adenocarcinoma cells A549, human high-metastasis lung cancer cells 95D, and human colon cancer cells HCT116, which were cryopreserved and passaged by the Pharmacological Laboratory of the Shanghai Institute of Pharmaceutical Industry, were selected. The culture medium used was DMEM+10% FBS+antibiotics.
(§14) Cells in the logarithmic growth phase were taken and seeded into 96-well plates at a density of 7×10^3 cells per well. They were then incubated at 37° C. in a 5% CO2 environment for 24 hours to maintain a normal physiological pH.
(§15) After cell adhesion, different concentrations of the test compounds, namely the bufalin derivatives IVa to IVc prepared in Example 5, as well as the comparative compound doxorubicin, were added to three replicate wells, with 0.1% DMSO added to separate wells as a control.
(§16) After 72 hours, 10 μL of the CCK-8 cell counting kit was added to each well, and the plates were incubated again at 37° C. for 0.5 to 1 hour. The absorbance (OD) was read at 450 nm on a full-function microplate reader, Biotek Synergy H2, and the concentration causing 50% inhibition of cell growth (IC50) was calculated through simulation using GraphPad Prism software.

[6] = test system: human colon cancer cells HCT116; assay: CCK-8 in vitro antitumor activity (Table 5); assay type: cell-based; settings: for IC50: Homo sapiens, HCT-116, HCT116, CCK-8, 72 hours; for activity against HCT116 compared with doxorubicin: HCT116, versus doxorubicin
Excerpt: as §12, §13, §14, §15, §16

[7] = test system: human high-metastasis lung cancer cells 95D; assay: CCK-8 in vitro antitumor activity (Table 5); assay type: cell-based; settings: for IC50: Homo sapiens, CCK-8, 72 hours
Excerpt: as §12, §13, §14, §15, §16

With O=c1[nH]cc(F)c(=O)[nH]1 [5-Fluorouracil, reference compound] the “Animal weight (After tumor removal)” value ([1]; nude mice, HCT116 xenograft) was 19.20 ± 1.84 g, the “RTV (d18)” value ([1]; relative tumor volume, d18) was 5.52 ± 0.81 and the “TGI (%)” value ([1]; tumor volume inhibition) was 56.16%. For the same molecule, the “Animal weight (After tumor removal)” value [2] was 21.84 ± 1.52 g, the “RTV (d18)” value [2] was 7.35 ± 1.55 and the “TGI (%)” value [2] was 59.37%.

With CCOP(=O)(CCN1CCC(NC(=O)O[C@H]2CC[C@@]3(C)[C@H](CC[C@@H]4[C@@H]3CC[C@]3(C)[C@@H](c5ccc(=O)oc5)CC[C@]43O)C2)CC1)OCC [Compound 1b] the IC50 [3] was under 0.004 µM, the IC50 [4] was under 0.004 µM and the “inhibitory effect on the migration of 95D cells” value (95D cells) was “excellent anti-tumor migration effects”.

In the case of CCOP(=O)(CCCN1CCC(NC(=O)O[C@H]2CC[C@@]3(C)[C@H](CC[C@@H]4[C@@H]3CC[C@]3(C)[C@@H](c5ccc(=O)oc5)CC[C@]43O)C2)CC1)OCC [Compound 1c], the IC50 [3] is reported as under 0.004 µM, the IC50 [4] is reported as under 0.004 µM and the “Animal weight (After tumor removal)” value [2] is reported as 21.02 ± 3.08 g. For the same molecule, the “RTV (d18)” value [2] was 6.56 ± 1.79, the “TGI (%)” value [2] was 63.69% and the “Inhibition rate (hERG potassium channel)” value (hERG potassium channel) was 53.8±4.13%.

Work on CCOP(=O)(CN1CCC(NC(=O)O[C@H]2CC[C@@]3(C)[C@H](CC[C@@H]4[C@@H]3CC[C@]3(C)[C@@H](c5ccc(=O)oc5)CC[C@]43O)C2)CC1)OCC [Compound 1d] yielded an IC50 [3] of 0.024 µM and an IC50 [4] of 0.037 µM.

Work on CCCOP(=O)(CN1CCC(NC(=O)O[C@H]2CC[C@@]3(C)[C@H](CC[C@@H]4[C@@H]3CC[C@]3(C)[C@@H](c5ccc(=O)oc5)CC[C@]43O)C2)CC1)OCCC [Compound 1e] yielded an IC50 [3] of 0.022 µM and an IC50 [4] of 0.058 µM.

Molecule C[C@]12CC[C@H](OC(=O)NC3CCN(CP(=O)(OC4CCC4)OC4CCC4)CC3)C[C@H]1CC[C@@H]1[C@@H]2CC[C@]2(C)[C@@H](c3ccc(=O)oc3)CC[C@]12O [Compound 1f] has an IC50 [3] of 0.067 µM and an IC50 [4] of 0.026 µM.

For C[C@]12CC[C@H](OC(=O)NC3CCN(CP(=O)(OC4CCCC4)OC4CCCC4)CC3)C[C@H]1CC[C@@H]1[C@@H]2CC[C@]2(C)[C@@H](c3ccc(=O)oc3)CC[C@]12O [Compound 1g], the IC50 [3] was 0.289 µM and the IC50 [4] was 0.422 µM.

C[C@]12CC[C@H](OC(=O)NC3CCN(CP(=O)(OC4CCCCC4)OC4CCCCC4)CC3)C[C@H]1CC[C@@H]1[C@@H]2CC[C@]2(C)[C@@H](c3ccc(=O)oc3)CC[C@]12O [Compound 1h] showed an IC50 [3] of 0.336 µM and an IC50 [4] of 0.023 µM.

CC(C)OP(=O)(CN1CC[C@@H](NC(=O)O[C@H]2CC[C@@]3(C)[C@H](CC[C@@H]4[C@@H]3CC[C@]3(C)[C@@H](c5ccc(=O)oc5)CC[C@]43O)C2)[C@H](O)C1)OC(C)C [Compound 1i] was tested, and the IC50 [3] was 0.008 µM and the IC50 [4] was 0.015 µM.

CC(C)OP(=O)(CNC1CCN(C(=O)O[C@H]2CC[C@@]3(C)[C@H](CC[C@@H]4[C@@H]3CC[C@]3(C)[C@@H](c5ccc(=O)oc5)CC[C@]43O)C2)CC1)OC(C)C [Compound 1j] showed an IC50 [3] of 0.02 µM and an IC50 [4] of 0.216 µM.

CO[C@H]1CN(C(=O)O[C@H]2CC[C@@]3(C)[C@H](CC[C@@H]4[C@@H]3CC[C@]3(C)[C@@H](c5ccc(=O)oc5)CC[C@]43O)C2)CC[C@H]1NCP(=O)(OC(C)C)OC(C)C [Compound 1k] gave an IC50 [3] of 0.143 µM and an IC50 [4] of 0.239 µM.

CC(C)OP(=O)(CNC1CCN(C(=O)O[C@H]2CC[C@@]3(C)[C@H](CC[C@@H]4[C@@H]3CC[C@]3(C)[C@@H](c5ccc(=O)oc5)CC[C@]43O)C2)CC1F)OC(C)C (some centres unmarked) [Compound 1l] showed an IC50 [3] of 0.12 µM and an IC50 [4] of 0.283 µM.

Molecule COc1cccc2c1C(=O)c1c(O)c3c(c(O)c1C2=O)C[C@@](O)(C(=O)CO)C[C@@H]3O[C@H]1C[C@H](N)[C@H](O)[C@H](C)O1 [Doxorubicin, reference compound] has an IC50 [3] of 0.054 µM, an IC50 [4] of 0.92 µM and an IC50 [5] of 0.008 µM. For the same molecule, the IC50 [6] was 0.019 µM and the IC50 [7] was 0.115 µM.

CC(C)OP(=O)(CN1CCN(C(=O)O[C@H]2CC[C@@]3(C)C(CCC4C3CC[C@]3(C)[C@@H](c5ccc(=O)oc5)CC[C@]43O)C2)CC1)OC(C)C (some centres unmarked) [IVa] showed an IC50 [5] of 0.019 µM, an IC50 [6] of 0.117 µM and an IC50 [7] of 0.574 µM.

CCOP(=O)(CN1CCN(C(=O)O[C@H]2CC[C@@]3(C)C(CCC4C3CC[C@]3(C)[C@@H](c5ccc(=O)oc5)CC[C@]43O)C2)CC1)OCC (some centres unmarked) [IVb] was tested, and the IC50 [5] was 0.018 µM, the “activity against HCT116 compared with doxorubicin” value [6] was “comparable activity against HCT116 to doxorubicin” and the IC50 [6] was 0.04 µM. It also gave an IC50 [7] of 0.262 µM.

With CCOP(=O)(CCCN1CCN(C(=O)O[C@H]2CC[C@@]3(C)C(CCC4C3CC[C@]3(C)[C@@H](c5ccc(=O)oc5)CC[C@]43O)C2)CC1)OCC (some centres unmarked) [IVc] the IC50 [5] was 0.011 µM, the “activity against HCT116 compared with doxorubicin” value [6] was “comparable activity against HCT116 to doxorubicin” and the IC50 [6] was 0.027 µM. For the same molecule, the IC50 [7] was 0.072 µM and the “activity against 95D compared with doxorubicin” value ([7]; versus doxorubicin) was “superior activity against 95D compared to doxorubicin”.
